The values below come from patent publication US20050065218A1, “Utilization of alverine, alone or in combination with tricyclic antidepressant or a specific serotonin reuptake inhibitor for the treatment of depression” (priority 2003, published 2005).

Holding throughout (assay type): in vivo
Test [1] has as its system Swiss mice CD1. Description: forced swim test, Alverine and fluoxetine administered intraperitoneally to mice (Example 3, second test). Conditions: for immobility time, individual animals / immobility time, Mean: 30 minutes prior to the test; for immobility time, Mean: n = 10. On the procedure:
These are Swiss mice CD1 (CD-1® (ICR) IGS (Charles River France) weighing between 25 and 35 g. […] They are placed 15 to 20 per cage, over an acclimatising period of at least 5 days prior to the tests. They are identified by marking on the fur. […] The mice were divided into two test comprising six groups of 10 mice each. For the second test: The first group is the control group: it is treated only by excipient. […] The doses are expressed in terms of free active substances. The test substances are prepared extemporaneously in a saline solution. The treatments are co-administered 30 minutes prior to the test in a coded and random order intraperitoneally with a volume of 10 ml/kg (5 ml/kg for each administration). […] The total duration of immobility is measured over the last four minutes of the test, six minutes in total. A mouse is deemed immobile when it ceases struggling and floats in the water without movements superfluous to those allowing it to keep its head above water. A drop in immobility time is the reflection of an antidepressant effect. The forced swim test is a pre-clinical behavioural model, which has good predictive validity and is widely employed for determining the efficacy of antidepressant medications (Borsini and Meli, 1988). The results are expressed in total duration of immobility in seconds and as a percentage of variation of the total duration of immobility calculated from the average value of the control group. The statistical significance between two treated groups is determined by using a Student test (P<0.05) The data are analysed using <<SigmaStat>> software.

Test [2] has as its system Swiss mice CD1. Kind of test: forced swim test, Alverine and imipramine administered intraperitoneally to mice (Example 3, first test). Conditions: for immobility time, individual animals / immobility time, Mean: 30 minutes prior to the test; for immobility time, Mean: n = 10. The arrangement: key to Dunnett test vs control group: * indicates a significant difference for p < 0.05 (Dunnett test); ns indicates an insignificant result. As to the method: These are Swiss mice CD1 (CD-1® (ICR) IGS (Charles River France) weighing between 25 and 35 g. […] They are placed 15 to 20 per cage, over an acclimatising period of at least 5 days prior to the tests. They are identified by marking on the fur. […] The mice were divided into two test comprising six groups of 10 mice each. For the first test: The first group is the control group: it is treated only by excipient. The second group is treated with imipramine at a dose of 3 mg/kg The third group is treated with Alverine at a dose of 3 mg/kg The fourth group is treated with Alverine at a dose of 3 mg/kg and imipramine at a dose of 3 mg/kg The fifth group is treated with imipramine at a dose of 10 mg/kg […] The doses are expressed in terms of free active substances. The test substances are prepared extemporaneously in a saline solution. The treatments are co-administered 30 minutes prior to the test in a coded and random order intraperitoneally with a volume of 10 ml/kg (5 ml/kg for each administration). Thirty minutes following administration the six groups of mice are subjected to the forced swim test, in a vertical Plexiglas cylinder (height 24 cm, diameter 9 cm) containing water (height 6 cm, temperature 18-22° C.). The total duration of immobility is measured over the last four minutes of the test, six minutes in total. A mouse is deemed immobile when it ceases struggling and floats in the water without movements superfluous to those allowing it to keep its head above water. A drop in immobility time is the reflection of an antidepressant effect. The forced swim test is a pre-clinical behavioural model, which has good predictive validity and is widely employed for determining the efficacy of antidepressant medications (Borsini and Meli, 1988). The results are expressed in total duration of immobility in seconds and as a percentage of variation of the total duration of immobility calculated from the average value of the control group. The statistical significance between two treated groups is determined by using a Student test (P<0.05) The data are analysed using <<SigmaStat>> software.

In test [3] the test system is Swiss mice CD1. Description: forced swim test, Alverine administered intraperitoneally to mice (Example 1). Conditions: Imipramine 10 mg/kg intraperitoneally. As to the method:
To establish the advantages according to the present invention a study was carried out to 50 mice. They were divided into 5 groups of 10 mice each. These are Swiss mice CD1 (CD-1® (ICR) IGS (Charles River France) weighing between 25 and 35 g.
They were placed in a room at a temperature of between 19.5 and 24.5° C. and a relative humidity of 45 to 65% with a light/dark cycle of 12 h, ad libitum access to filtered water and pellets of laboratory-standard food.
They are placed 15 to 20 per cage, over an acclimatising period of at least 5 days prior to the tests. They are identified by marking on the fur.
The substance to be tested is Alverine citrate (Sigma, in the form of dry powder, with a salt/base ratio of 1.68) comparatively to imipramine chlorhydrate (Sigma, in the form of dry powder, with a salt/base ratio of 1.13).
The first group is the control group: it is treated only by excipient.
The second group is treated with Alverine at a dose of 3 mg/kg
The third group is treated with Alverine at a dose of 10 mg/kg
The fourth group is treated with Alverine at a dose of 30 mg/kg
The fifth group is treated with imipramine (tricyclic antidepressant) at a dose of 10 mg/kg
The doses are expressed in terms of free active substances. The substances are prepared extemporaneously in the excipient. The treatments are administered 30 minutes prior to the test in a coded and random order intraperitoneally with a volume of 10 ml/kg.
Thirty minutes following administration the five groups of mice are subjected to the forced swim test, in a vertical Plexiglas cylinder (height 24 cm, diameter 9 cm) containing water (height 6 cm, temperature 18-22° C.). The total duration of immobility is measured over the last four minutes of the test, six minutes in total. A mouse is deemed immobile when it ceases struggling and floats in the water without movements superfluous to those allowing it to keep its head above water. A drop in immobility time is the reflection of an antidepressant effect.
The forced swim test is a pre-clinical behavioural model, which has good predictive validity and is widely employed for determining the efficacy of antidepressant medications (Borsini and Meli, 1988).
The results are expressed in total duration of immobility in seconds and as a percentage of variation of the total duration of immobility calculated from the average value of the control group.
The statistical significance between the treated groups and the control group is determined by a Dunnett test using the residual variation according to analysis of the variance (P<0.05). The data are analysed using <<SigmaStat>> software.

For test [4], the system named is Swiss mice CD1. Description: forced swim test, Alverine administered orally to mice (Example 2).
Where [5] appears, read: Fluoxetine 3 mg/kg intraperitoneally.
[6] abbreviates: Fluoxetine 10 mg/kg intraperitoneally.
Where [7] appears, read: tested alone at 3 mg/kg intraperitoneally.
Where [8] appears, read: Imipramine 3 mg/kg intraperitoneally.
Setting [9] is: Imipramine 10 mg/kg intraperitoneally.

Values joined by “and” are separate entries in the source; they are usually repeats but may differ in a detail not shown here. Equal entries are not always repeated.

Take `CNCCC(Oc1ccc(C(F)(F)F)cc1)c1ccccc1` (stereo not drawn) [Fluoxetine, fluoxetine]: in the test on Swiss mice CD1 [1] (setting [5]), the “% of variation of immobility time vs control group” value (from here on “% of variation of immobility time”) is recorded as −30%; the “Dunnett test vs control group” value is “* (* indicates a significant difference for p < 0.05 (Dunnett test))”; the “immobility time, individual animals” value was 149 s and 18 s and 101 s and 99 s and 10 s and 100 s and 103 s; the “immobility time, Mean” value amounted to 105.6 s. In the test with Swiss mice CD1 [1] (setting [6]), the “% of variation of immobility time” value is reported as −45%; the “Dunnett test vs control group” value was “* (* indicates a significant difference for p < 0.05 (Dunnett test))”; the “immobility time, individual animals” value is 76 sec (2×) and 83 sec and 105 sec and 90 sec and 28 sec and 88 sec and 34 sec; the “immobility time, Mean” value was determined as 82.7 s. Also, the “decrease in the duration of immobilisation as compared to the control group (in words)” value with Swiss mice CD1 [1] (setting [7]) is “statistically significant decrease”.

For the compound `CN(C)CCCN1c2ccccc2CCc2ccccc21` [Imipramine, imipramine], the “% of variation of immobility time” value is recorded as −24% in the test with Swiss mice CD1 [2] (setting [8]), −67% with Swiss mice CD1 [2] (setting [9]), −62% in the test with Swiss mice CD1 [3] and −58% in the test with Swiss mice CD1 [4] (Imipramine 30 mg/kg orally). Further, the “Dunnett test vs control group” value in the test on Swiss mice CD1 [2] (setting [8]) is reported as “ns”; with Swiss mice CD1 [2] (setting [9]), “* (* indicates a significant difference for p < 0.05 (Dunnett test))”; in the test on Swiss mice CD1 [3], “* (* indicates a significant difference for p < 0.05 (Dunnett test))”; in the test on Swiss mice CD1 [4] (Imipramine 30 mg/kg orally), “* (* indicates a significant difference for p < 0.05 (Dunnett test))”. The “immobility time, individual animals” value is 121 sec (2×) and 70 sec and 74 sec and 122 sec and 93 sec and 94 sec and 141 sec and 133 sec and 123 sec in the test on Swiss mice CD1 [2] (setting [8]); 0 s and 62 s and 38 s and 54 s and 45 s and 92 s and 26 s and 77 s and 80 s and 4 s in the test with Swiss mice CD1 [2] (setting [9]); 67 s and 70 s and 1 s and 89 s and 3 s and 9 s and 38 s and 99 s and 53 s and 65 s with Swiss mice CD1 [3] (30 minutes prior to the test); 52 s and 64 s and 55 s and 5 s and 75 s and 67 s and 70 s and 89 s and 45 s and 96 s in the test with Swiss mice CD1 [4] (Imipramine 30 mg/kg orally, 60 minutes prior to the test). Moreover, the “immobility time, Mean” value with Swiss mice CD1 [2] (setting [8]) was 109.2 s; with Swiss mice CD1 [2] (setting [9]), 47.8 s; in the test with Swiss mice CD1 [3] (30 minutes prior to the test, N = 10), 49.4 s; in the test with Swiss mice CD1 [4] (Imipramine 30 mg/kg orally, 60 minutes prior to the test, N = 10) it was 61.9 s. In the test on Swiss mice CD1 [2] (setting [7]), the “decrease in the duration of immobilisation as compared to the control group (in words)” value was “statistically insignificant decrease”. Further, the “immobility time compared with mice treated with Alverine” value in the test with Swiss mice CD1 [4] (Imipramine 30 mg/kg orally vs Alverine 100 mg/kg orally) was “comparable to the mice of the fourth group treated at 100 mg/kg of Alverine”.
